The values below come from PMC9585577, “Oxyresveratrol and Gnetol Glucuronide Metabolites: Chemical Production, Structural Identification, Metabolism by Human and Rat Liver Fractions, and In Vitro Anti-inflammatory Properties” (Journal of Agricultural and Food Chemistry, 2022).

Bounds are passed on as bounds.

Series [1] deals with TNF-α production in LPS-stimulated RAW 264.7 cells. Kind of series: TNF-α production (ELISA) in LPS-stimulated macrophages. The series is classed as cell-based, murine. To be noted: t-GN 10 and 50 μM, its glucuronides 50 and 200 μM, 24 h. The procedure: (§1) RAW 264.7 cells were cultured in DMEM containing 10% FBS and maintained in a humidified incubator set at 37 °C with 5% CO2. For all following assays, cells were subcultured at a density of 40 000 cells per well in 96 well culture plates with 200 μL of the above-described culture medium. After 24 h, cells were incubated with ORV, GN, and their glucuronide metabolites (5–200 μM) in RPMI medium supplemented with glutamine (4 mM) in the presence or absence of LPS (0.1 μg/mL) (200 μL final volume per well). For MTT, NO, ROS, IL-1β, and TNF-α (n = 4), each experiment was performed in triplicate separately.
(§2) At 24 h after seeding, RAW 264.7 cells were exposed to LPS (0.1 μg/mL) in the absence or presence of ORV, GN (10 and 50 μM), and their metabolites (50 and 200 μM). After 24 h of exposure, IL-1β and TNF-α concentrations were measured in culture media supernatants by ELISA sandwich assay following the instructions of the manufacturer.
(ELISA stands for enzyme-linked immunosorbent assay.)

The test system of the next series is BV-2 microglial cells. The arrangement: method as in PMID 23807809. Conditions: 5 and 10 μM, BV-2 microglial cells ref 36; cited from earlier work.
The subject of series [2] is IL-1β production in LPS-stimulated RAW 264.7 cells. Description: IL-1β production (ELISA) in LPS-stimulated macrophages. Type of series: cell-based, murine. To be noted: t-GN 10 and 50 μM, its glucuronides 50 and 200 μM, 24 h. The procedure:
as §1, §2

The subject of the next series is RAW 264.7 cells. Kind of series: MTT cell viability. Type of series: cell-based, murine. To be noted: 24 h, 5–200 μM tested. The procedure: as §1
The MTT colorimetric assay was performed to assess the cell viability of cells after being treated with ORV, GN, and their glucuronide metabolites. After 24 h of treatment, RAW 264.7 cells were incubated with 0.5 mg/mL MTT during 3 h at 37 °C. The formazan crystals formed were dissolved with 100 μL of dimethyl sulfoxide (DMSO), and the plate was then incubated in the darkness for 30 min. Finally, the absorbance was measured at 595 nm using a microplate reader (FLUOstar Optima, BMG Labtech).

Details of series [3]: method as in PMID 25939395. Conditions: rats, intravenous and oral administration ref 2; cited from earlier work.
In series [4] the test system is ROS production in LPS-stimulated RAW 264.7 cells. Description: Intracellular ROS measurement (DCFH2-DA) in LPS-stimulated macrophages. The series is classed as cell-based, murine. As for the experimental part: as §1
Generation of intracellular ROS in cells was analyzed using the fluorometric probe DCFH2-DA. After 24 h of treatment with GN, ORV, and their glucuronide metabolites, cells were washed with phosphate-buffered saline (PBS) and then 150 μL of DCFH2-DA (10 μM) was added. After 30 min at 37 °C, the fluorescence intensity was quantified using a microplate reader (FLUOstar Optima, BMG Labtech) with a wavelength of excitation and emission of 485 and 520 nm, respectively. All experiments were performed in darkness. Results were expressed as ROS production (fluorescence intensity expressed as arbitrary units) compared to cells treated only with LPS (positive control).

In series [5] the test system is NO production in LPS-stimulated RAW 264.7 cells. Kind of series: NO measurement (Griess) in LPS-stimulated macrophages. To be noted: between 25 and 50 μM (summary statement). The series is classed as cell-based, murine. As for the experimental part: as §1
After 24 h of treatment of RAW 264.7 cells with ORV, GN, and their glucuronide metabolites, 70 μL of supernatant was mixed with 70 μL of Griess solution. After 15 min in darkness, the absorbance was measured at 550 nm using a microplate reader (FLUOstar Optima, BMG Labtech). A calibration curve of NO2 (0–100 μM) was used for quantification. Data were expressed as NO production (μM) compared to cells treated only with LPS (positive control).

For `Oc1cc(O)cc(/C=C/c2c(O)cccc2O)c1` [t-GN, trans-2′,3,5,6′-tetrahydroxystilbene], in series [1], the “reduction of TNF-α” value is given as “ineffective”. Besides, the cytotoxic effect result with BV-2 microglial cells is on record as “no cytotoxic effect”. In series [2], the “reduction of IL-1β” value is recorded as “ineffective”. Also, the “concentration from which toxic (MTT)” value in the series with RAW 264.7 cells is at least 100 µM. Besides, in series [3], the calculated bioavailability is listed as 6.6%. Besides, the “counteracting ROS production” value in series [4] (GN, concentration not stated (5–50 μM tested), 24 h, LPS) is “more than 55%”. The “decrease of ROS production” value in series [4] (between 25 and 50 μM (summary statement)) is “more than 50%”. For the same compound, the “decrease of NO production” value in series [5] was “more than 50%”.
